Here are results for 32 compounds from patent publication US8394969B2, “Cyclic benzimidazole derivatives useful as anti-diabetic agents” (Merck Sharp & Dohme Corp., priority 2008, dated 2013).

pEC50: −log10 of the molar value.

This test deals with recombinant human AMPK complex 1 (containing α1β1γ1) (Homo sapiens, UniProt Q13131+Q9Y478). The test can be described thus: […] (in vitro AMPK activation assay). It counts as biochemical. Conditions: for Emax: recombinant human AMPK complex 1 (α1β1γ1), basal activity subtracted, read-out: % Maximum AMP Activation of human AMPK Complex 1. Here is the method:
Recombinant viruses were generated by cotransfection of AMPK/pBacPak9 clones with Baculogold baculovirus DNA (Pharmingen) in spodoptera frugiperda 21 cells according to the manufacturer's instructions. Each round of virus amplification was performed for 5 days in Grace's medium containing 10% serum. Virus that had been subjected to three rounds of amplification was used for all protein production procedures. To express the AMPK complex, sf21 cells were adapted to serum free medium (SF900 II, Invitrogen) by sequential dilution from serum containing stocks into SF900 II medium and maintained in shaker flasks at 90 rpm at 27° C. The recombinant AMPK enzyme complex was produced by triple infection, one recombinant virus for each of the subunits, in sf21 cells under serum free conditions. […] Cells were harvested by centrifugation at 10,000×g for 15 minutes after 72 hours of infection with viruses. The insect cell pellet from 2 liters of culture was resuspended in 50 ml lysis buffer (20 mM Tris-HCl, 50 mM NaCl, 50 mM NaF, 30 mM Na PPi, 0.25 M sucrose, 10 mM ZnCl2, 2 mM DTT, 0.4 mg/ml digitonin) and subjected to two cycles of freeze-thaw lysis in a dry-ice ethanol bath. Insoluble material was removed by centrifugation at 10,000×g and the supernatant was fractionated with use of polyethylene glycol (PEG).
The total in vitro AMPK activation assay volume is 50 μl in a 96-well plate. […] The reaction was initiated with addition of the enzyme. After 30-minute incubation at 30° C., the reaction was stopped by addition of 80 μl 1% H3PO4. Aliquots (100 μl) were transferred to 96-well MultiScreen plates (MAPHNOB50; Millipore Corp., Bedford, Mass., USA). The plate was washed three times with 1% H3PO4 followed by detection in a Top-count. The counts per minute from the basal activity (the reaction without activator) was subtracted from each well and the data were expressed as % maximum AMP activation followed by EC50 calculation.

Sequence of recombinant human AMPK complex 1 (containing α1β1γ1) (Q13131 whole entry): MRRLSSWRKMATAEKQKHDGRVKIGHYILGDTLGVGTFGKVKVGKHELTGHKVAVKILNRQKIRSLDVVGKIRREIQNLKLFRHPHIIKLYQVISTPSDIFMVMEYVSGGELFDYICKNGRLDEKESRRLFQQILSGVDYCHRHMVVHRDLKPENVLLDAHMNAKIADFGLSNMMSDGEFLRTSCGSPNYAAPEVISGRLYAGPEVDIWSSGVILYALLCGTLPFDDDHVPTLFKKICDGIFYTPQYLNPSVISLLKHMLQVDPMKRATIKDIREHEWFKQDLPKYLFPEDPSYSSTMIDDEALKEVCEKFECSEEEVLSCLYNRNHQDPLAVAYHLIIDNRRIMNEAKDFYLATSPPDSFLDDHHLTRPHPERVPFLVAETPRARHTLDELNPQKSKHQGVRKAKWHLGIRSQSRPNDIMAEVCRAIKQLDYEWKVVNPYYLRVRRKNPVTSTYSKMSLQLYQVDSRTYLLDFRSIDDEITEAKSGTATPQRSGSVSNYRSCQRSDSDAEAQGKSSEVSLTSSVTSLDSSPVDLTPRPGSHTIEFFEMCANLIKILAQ
Sequence of recombinant human AMPK complex 1 (containing α1β1γ1) (Q9Y478 whole entry): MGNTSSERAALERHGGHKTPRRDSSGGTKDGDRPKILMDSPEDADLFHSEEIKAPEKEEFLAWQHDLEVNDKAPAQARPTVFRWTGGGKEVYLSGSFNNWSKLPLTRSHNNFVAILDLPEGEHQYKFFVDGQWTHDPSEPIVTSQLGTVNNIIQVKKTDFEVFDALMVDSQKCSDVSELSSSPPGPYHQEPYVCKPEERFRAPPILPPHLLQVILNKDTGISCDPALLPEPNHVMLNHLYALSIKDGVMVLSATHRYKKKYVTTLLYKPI
Sequence of recombinant human AMPK complex 1 (containing α1β1γ1) (P54619 whole entry partner): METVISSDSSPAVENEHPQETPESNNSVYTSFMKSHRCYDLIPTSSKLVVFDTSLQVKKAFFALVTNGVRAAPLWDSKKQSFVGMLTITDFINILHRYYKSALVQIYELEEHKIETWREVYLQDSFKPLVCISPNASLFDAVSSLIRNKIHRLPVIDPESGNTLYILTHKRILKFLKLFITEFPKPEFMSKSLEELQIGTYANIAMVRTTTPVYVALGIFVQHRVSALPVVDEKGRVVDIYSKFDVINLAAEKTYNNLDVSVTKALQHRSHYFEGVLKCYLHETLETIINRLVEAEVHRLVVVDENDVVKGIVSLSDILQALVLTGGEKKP

Usually pEC50 stands for the negative decadic logarithm of the EC50, by convention in mol/L. As for `Cc1ccc(Oc2nc3cc(-c4ccc(-c5ccccc5)cc4)c(Cl)cc3[nH]2)cc1C(=O)O` [Example 1, 5-[(5-biphenyl-4-yl-6-chloro-1H-benzimidazol-2-yl)oxy]-2-methylbenzoic acid], the pEC50 is 8.10.

In the case of `NC(=O)Nc1cccc(Oc2nc3cc(-c4ccc(-c5ccccc5)cc4)c(Cl)cc3[nH]2)c1` [Example 2, [3-(5-Biphenyl-4-yl-6-chloro-1H-benzoimidazol-2-yloxy)-phenyl]-urea], the Emax is above 80%.

Turning to `CC(=O)Nc1cccc(Oc2nc3cc(-c4ccc(-c5ccccc5)cc4)c(Cl)cc3[nH]2)c1` [Example 3, N-[3-(5-Biphenyl-4-yl-6-chloro-1H-benzoimidazol-2-yloxy)-phenyl]-acetamide], the Emax was above 80%.

As for `CCOC(=O)c1c(C)[nH]c2ccc(Oc3nc4cc(-c5ccc(-c6ccccc6)cc5)c(Cl)cc4[nH]3)cc12` [Example 4, 5-(5-Biphenyl-4-yl-6-chloro-1H-benzoimidazol-2-yloxy)-2-methyl-1H-indole-3-carboxylic acid ethyl ester], the Emax was above 80%.

As to `Cc1[nH]c2ccc(Oc3nc4cc(-c5ccc(-c6ccccc6)cc5)c(Cl)cc4[nH]3)cc2c1C(=O)O` [Example 5, 5-(5-Biphenyl-4-yl-6-chloro-1H-benzoimidazol-2-yloxy)-2-methyl-1H-indole-3-carboxylic acid], the Emax was above 80%.

Regarding `COC(=O)C1(c2ccc(Oc3nc4cc(-c5ccc(-c6ccccc6)cc5)c(Cl)cc4[nH]3)cc2)CC1` [Example 6, 1-[4-(5-Biphenyl-4-yl-6-chloro-1H-benzoimidazol-2-yloxy)-phenyl]-cyclopropanecarboxylic acid methyl ester], the Emax is above 80%.

In the case of `O=C(O)C1(c2ccc(Oc3nc4cc(-c5ccc(-c6ccccc6)cc5)c(Cl)cc4[nH]3)cc2)CC1` [Example 7, 1-[4-(5-Biphenyl-4-yl-6-chloro-1H-benzoimidazol-2-yloxy)-phenyl]-cyclopropanecarboxylic acid], the Emax was above 80%.

For the compound `O=C(O)Cc1ccc(Oc2nc3cc(-c4ccc(-c5ccccc5)cc4)c(Cl)cc3[nH]2)cc1C(=O)O` [Example 8, 5-(5-Biphenyl-4-yl-6-chloro-1H-benzoimidazol-2-yloxy)-2-carboxymethyl-benzoic acid], the Emax was above 80%.

Take `CCOC(=O)Cc1ccc(Oc2nc3cc(-c4ccc(-c5ccccc5)cc4)c(Cl)cc3[nH]2)cc1C(=O)OCC` [Example 9, 5-(5-Biphenyl-4-yl-6-chloro-1H-benzoimidazol-2-yloxy)-2-ethoxycarbonylmethyl-benzoic acid ethyl ester]: the Emax is above 80%.

Regarding `COC(=O)c1ccc(Oc2nc3cc(-c4ccc(-c5ccccc5)cc4)c(Cl)cc3[nH]2)cc1C(=O)OC` [Example 10, 4-(5-Biphenyl-4-yl-6-chloro-1H-benzoimidazol-2-yloxy)-phthalic acid dimethyl ester], the Emax is above 80%.

In the case of `Cc1cc(Oc2nc3cc(-c4ccc(-c5ccccc5)cc4)c(Cl)cc3[nH]2)cc(C(=O)O)c1C` [Example 11, 5-(5-Biphenyl-4-yl-6-chloro-1H-benzoimidazol-2-yloxy)-2,3-dimethyl-benzoic acid], the Emax was above 80%.

For `COC(=O)c1c(C)cc(Oc2nc3cc(-c4ccc(-c5ccccc5)cc4)c(Cl)cc3[nH]2)cc1C(=O)O` [Example 12, 5-(5-Biphenyl-4-yl-6-chloro-1H-benzoimidazol-2-yloxy)-3-methyl-phthalic acid 2-methyl ester], the Emax is above 80%.

As to `COC(=O)c1cc(Oc2nc3cc(-c4ccc(-c5ccccc5)cc4)c(Cl)cc3[nH]2)cc(C)c1C` [Example 14, 5-(5-Biphenyl-4-yl-6-chloro-1H-benzoimidazol-2-yloxy)-2,3-dimethyl-benzoic acid methyl ester], the Emax was above 80%.

`COC(=O)c1cc(Oc2nc3cc(-c4ccc(-c5ccccc5)cc4)c(Cl)cc3[nH]2)cc(C)c1C(=O)OC` [Example 15, 5-(5-Biphenyl-4-yl-6-chloro-1H-benzoimidazol-2-yloxy)-3-methyl-phtalic acid dimethyl ester]: the Emax was above 80%.

Turning to `O=C1Cc2cc(Oc3nc4cc(-c5ccc(-c6ccccc6)cc5)c(Cl)cc4[nH]3)ccc2O1` [Example 16, 5-(5-Biphenyl-4-yl-6-chloro-1H-benzoimidazol-2-yloxy)-3H-benzofuran-2-one], the Emax is above 80%.

As for `O=C(O)Cc1cc(Oc2nc3cc(-c4ccc(-c5ccccc5)cc4)c(Cl)cc3[nH]2)ccc1O` [Example 17, [5-(5-Biphenyl-4-yl-6-chloro-1H-benzoimidazol-2-yloxy)-2-hydroxy-phenyl]-acetic acid], the Emax was above 80%.

For `NC(C(=O)O)c1ccc(Oc2nc3cc(-c4ccc(-c5ccccc5)cc4)c(Cl)cc3[nH]2)cc1` (centres unmarked) [Example 18, Amino-[4-(5-biphenyl-4-yl-6-chloro-1H-benzoimidazol-2-yloxy)-phenyl]-acetic acid], the Emax is above 80%.

For `O=C(O)C(O)c1cccc(Oc2nc3cc(-c4ccc(-c5ccccc5)cc4)c(Cl)cc3[nH]2)c1` (centres unmarked) [Example 19], the Emax was above 80%.

Regarding `O=C(O)C(O)c1ccc(Oc2nc3cc(-c4ccc(-c5ccccc5)cc4)c(Cl)cc3[nH]2)cc1` (centres unmarked) [Example 20, [4-(5-Biphenyl-4-yl-6-chloro-1H-benzoimidazol-2-yloxy)-phenyl]-hydroxy-acetic acid], the Emax was above 80%.

On to `O=C(O)Cc1cc(O)cc(Oc2nc3cc(-c4ccc(-c5ccccc5)cc4)c(Cl)cc3[nH]2)c1` [Example 21, [3-(5-Biphenyl-4-yl-6-chloro-1H-benzoimidazol-2-yloxy)-5-hydroxy-phenyl]-acetic acid], for which the Emax is above 80%.

Take `O=C(O)Cc1cccc(Oc2nc3cc(C#Cc4ccccc4)c(Cl)cc3[nH]2)c1` [Example 22, [3-(6-Chloro-5-phenylethynyl-1H-benzoimidazol-2-yloxy)-phenyl]-acetic acid]: the Emax was above 80%.

Turning to `NC(=O)Cc1cccc(Oc2nc3cc(C#Cc4ccccc4)c(Cl)cc3[nH]2)c1` [Example 23, 2-[3-(6-Chloro-5-phenylethynyl-1H-benzoimidazol-2-yloxy)-phenyl]-acetamide], the Emax was above 80%.

As for `O=C(O)CCc1cccc(Oc2nc3cc(C#Cc4ccccc4)c(Cl)cc3[nH]2)c1` [Example 24, 3-[3-(6-Chloro-5-phenylethynyl-1H-benzoimidazol-2-yloxy)-phenyl]-propionic acid], the Emax was above 80%.

Regarding `O=C(O)CCc1ccc(Oc2nc3cc(-c4ccc(-c5ccccc5)cc4)c(Cl)cc3[nH]2)cc1` [Example 25, 3-[4-(5-Biphenyl-4-yl-6-chloro-1H-benzoimidazol-2-yloxy)-phenyl]-propionic acid], the Emax is above 80%.

`O=C(O)Cc1ccc(Oc2nc3cc(-c4ccc(-c5ccccc5)cc4)c(Cl)cc3[nH]2)cc1` [Example 26, [4-(5-Biphenyl-4-yl-6-chloro-1H-benzoimidazol-2-yloxy)-phenyl]-acetic acid]: the Emax was above 80%.

Turning to `Cc1cc(Oc2nc3cc(-c4ccc(-c5ccccc5)cc4)c(Cl)cc3[nH]2)cc(O)c1C(=O)O` [Example 27, 4-(5-Biphenyl-4-yl-6-chloro-1H-benzoimidazol-2-yloxy)-2-hydroxy-6-mehtyl-benzoic acid], the Emax was above 80%.

Regarding `O=C(O)c1cc(Oc2nc3cc(-c4ccc(-c5ccccc5)cc4)c(Cl)cc3[nH]2)ccc1O` [Example 28, 5-(5-Biphenyl-4-yl-6-chloro-1H-benzoimidazol-2-yloxy)-2-hydroxy-benzoic acid], the Emax is above 80%.

Consider `O=C1NC(=O)C(c2ccc(Oc3nc4cc(-c5ccc(-c6ccccc6)cc5)c(Cl)cc4[nH]3)cc2)N1` (centres unmarked) [Example 29, 5-[4-(5-Biphenyl-4-yl-6-chloro-1H-benzoimidazol-2-yloxy)-phenyl]-imidazolidine-2,4-dione], for which the Emax is above 80%.

Take `NC(=O)c1ccc(Oc2nc3cc(-c4ccc(-c5ccccc5)cc4)c(Cl)cc3[nH]2)cc1` [Example 30, 4-(5-Biphenyl-4-yl-6-chloro-1H-benzoimidazol-2-yloxy)-benzamide]: the Emax was above 80%.

As to `COC(=O)c1ccc(Oc2nc3cc(-c4ccc(-c5ccccc5)cc4)c(Cl)cc3[nH]2)cc1O` [Example 31, 4-(5-Biphenyl-4-yl-6-chloro-1H-benzoimidazol-2-yloxy)-2-hydroxy-benzoic acid methyl ester], the Emax is above 80%.

For `O=C(O)c1ccc(Oc2nc3cc(-c4ccc(-c5ccccc5)cc4)c(Cl)cc3[nH]2)cc1O` [Example 32, 4-(5-Biphenyl-4-yl-6-chloro-1H-benzoimidazol-2-yloxy)-2-hydroxy-benzoic acid], the Emax is above 80%.

On to `Clc1cc2[nH]c(Oc3cccc(-c4nn[nH]n4)c3)nc2cc1-c1ccc(-c2ccccc2)cc1` [Example 33, 5-Biphenyl-4-yl-6-chloro-2-[3-(2H-tetrazol-5-yl)-phenoxy]-1H-benzoimidazol], for which the Emax was above 80%.
